Laboratory results published in patent publication US4241056A, “Penicillins and salts thereof” (Boehringer Ingelheim GmbH, priority 1978, dated 1980).
Converted amounts (≈) assume the structure as drawn. Read-outs that look alike come from different tables or passages of the source.

Legend:
pseud. aerug. hamburg. = experiment: Influence of the size of the inoculum on the MIC-values; type: cell-based; conditions: Pseudomonas aeruginosa
Procedure: (§1) For the penicillins C and H, which are typical representatives for this invention, the influence of the size of the inoculum on the MIC-values against ps. aerug. hamburg. and E. coli ATCC 11775 in the microtiter system was determined. Thereby 3 different sizes of inoculum (3.3×10^6, 3.3×10^4 and 3.3×10^2 in E. coli and 4.7×10^6, 4.7×10^4 and 4.7×10^2 in pseudomonas) were used. The reference system was again penicillin Q.

E. coli ATCC 11775 [1] = experiment: as above; type: cell-based; conditions: Escherichia coli
Procedure: as §1

[2] = tested on: pseudomonas aeruginosa walter; experiment: In vivo activity against experimental infection in mice; set-up: species or system mouse (NMRI); conditions: sc, 168 h, subcutaneous, 7 days observation, read-out: ED50 (dose at which 50% of the animals survived)
Procedure: (§2) A number of compounds of this invention were tested in vivo in mice against experimental infections. Bacteria E. coli ATCC 11775 and pseudomonas aeruginosa walter were used as pathogens. An intraperitoneal infection with 0.2 ml of a 5% mucin suspension of the bacteria was induced. This corresponds to about 2×10^6 germs E. coli and 8×10^5 germs pseudomonas/mouse. Female NMRI mice were divided into groups of 10 animals each, two control groups remained untreated, the remaining groups were treated with different doses of the respective penicillins for the determination of the ED50 (dose at which 50% of the animals survived). The groups with the E. coli infection were treated with the substance 3 times on the first day (1, 4 and 7 hours post-infectionem) and for 2 days thereafter twice a day. The groups with the pseudomonas infection were treated with the substance applied 6 times on the first day (1, 3, 6, 9, 12, and 15 hours post-infectionem) and for 2 days thereafter twice a day. The observation time was in both cases 7 days.

E. coli ATCC 11775 [3] = experiment: as above; set-up: species or system mouse (NMRI); conditions: Escherichia coli, 168 h, 7 days observation, read-out: ED50 (dose at which 50% of the animals survived)
Procedure: as §2

[4] = tested on: escherichia coli ATCC 9637; experiment: MIC, serial dilution test in the microtiter system; type: cell-based; conditions: ATCC9637, 18 h, E. coli ATCC 9637, 37° C., 18-20 hours
Procedure: (§3) The tests were performed according to the method of the serial dilution test in the microtiter system. The effect of the substances on bacteriostasis was examined in a fluid medium. The activity on bacteriostatis was examined at the following concentrations:
(§4) 10 gm of peptone, 8 gm of meat extract-oxoid, 3 gm of sodium chloride, 2 gm of sec. sodium phosphate were diluted with distilled water to 1000 ml (pH 7.2-7.4). Only in the test against streptococci 1% of glucose was added. The age of the primary cultures was about 20 hours. The standardizations of the pathogen suspension was effected by using a photometer according to "Eppendorf" (test tube diameter 14 mm, filter 546 nm) with the aid of the turbidity of a comparison suspension consisting of barium sulfate, this suspension being prepared by addition of 3.0 ml of 1% barium chloride solution to 97 ml of 1% sulfuric acid. After the standardization, streptococcus aronson were further diluted to a concentration of 1:15 and the other germs to a concentration of 1:1500 by menas of a sodium chloride solution.
(§5) 16 mg of the test substance were put into a 10 ml measuring flask and filled up to the mark with the solvent. The further dilution series was standardized with distilled water or the respective solvent.
(§6) The cavities of the microtiter plates were filled with 0.2 ml of nutrient medium. Then, 0.01 ml of the corresponding test substance dilution was added and inoculated with 0.01 ml of the standardized suspension. The bacteria were incubated at 37° C. for 18-20 hours. Control tests merely using the solvent were carried out simultaneously.
(§7) The measurement was carried out macroscopically to determine the minimal inhibitory (threshold) concentration, i.e. the lowest still bacteriostatically effective concentration.
(§8) Staphylococcus aureus SG 511, streptococcus aronson, streptococcus faecalis ATCC 10541, escherichia coli ATCC 9637, 11 775 and escherichia coli 12593/74 (β-lactamase carrier), pseudomonas aeruginosa hamburgensis and ATCC 10145, serratia marcescens ATCC 13 880, klebsiella pneumoniae ATCC 10 031 and 272 and proteus mirabilis hamburgensis.

[5] = tested on: escherichia coli ATCC 11775; experiment: MIC, serial dilution test in the microtiter system; type: cell-based; conditions: ATCC11775, 18 h, E. coli ATCC 11775, 37° C., 18-20 hours
Procedure: as §3, §4, §5, §6, §7, §8

[6] = tested on: pseudomonas aeruginosa hamburgensis; experiment: MIC, serial dilution test in the microtiter system; type: cell-based; conditions: 18 h, pseud. aerug. hamb., 37° C., 18-20 hours
Procedure: as §3, §4, §5, §6, §7, §8

[7] = tested on: pseudomonas aeruginosa ATCC 10145; experiment: MIC, serial dilution test in the microtiter system; type: cell-based; conditions: ATCC10145, 18 h, pseud. aerug. ATCC 10145, 37° C., 18-20 hours
Procedure: as §3, §4, §5, §6, §7, §8

[8] = Serum (blood) level in rats; type: in vivo; conditions: rat, average from 3 rats; for concentration at 0.5 h: 30 min.; for concentration at 1 h: 60 min.; for concentration at 2 h: 120 min.
Procedure: For the determination of the serum level in rats, typical representatives of the penicillins according to the invention were administered at a dosage of 10 mg/kg subcutaneously or 100 mg/kg per os to groups of 3 female FW 49 rats (weight 100 to 130 gm) each. Blood tests taken from the heart were worked up, and the obtained sera were tested by the cylinder test-agar diffusion method on plates with sarcina lutea ATCC 15957. The samples were compared with standard curves.

Pseudomonas = conditions: in vivo as well as in vitro; cited from earlier work
[9] = tested on: proteus mirabilis hamburgensis; experiment: MIC, serial dilution test in the microtiter system; type: cell-based; conditions: 18 h, prot. mirabilis, 37° C., 18-20 hours
Procedure: as §3, §4, §5, §6, §7, §8

[10] = tested on: Staphylococcus aureus SG 511; experiment: MIC, serial dilution test in the microtiter system; type: cell-based; conditions: SG511, 18 h, Staph. Aureus SG 511, 37° C., 18-20 hours
Procedure: as §3, §4, §5, §6, §7, §8

[11] = tested on: serratia marcescens ATCC 13 880; experiment: MIC, serial dilution test in the microtiter system; type: cell-based; conditions: ATCC13, 18 h, serrat marcesc., 37° C., 18-20 hours
Procedure: as §3, §4, §5, §6, §7, §8

[12] = tested on: klebsiella pneumoniae 272; experiment: MIC, serial dilution test in the microtiter system; type: cell-based; conditions: 18 h, klebs pneum. 272, 37° C., 18-20 hours
Procedure: as §3, §4, §5, §6, §7, §8

[13] = tested on: escherichia coli 12593/74 (β-lactamase carrier); experiment: MIC, serial dilution test in the microtiter system; type: cell-based; conditions: 18 h, E. coli 12593/74 (β-lactamase carrier), 37° C., 18-20 hours
Procedure: as §3, §4, §5, §6, §7, §8

streptococcus aronson = experiment: MIC, serial dilution test in the microtiter system; type: cell-based; conditions: 18 h, strept. aronson, 1% glucose added, 37° C., 18-20 hours
Procedure: as §3, §4, §5, §6, §7, §8

[14] = tested on: streptococcus faecalis ATCC 10541; experiment: MIC, serial dilution test in the microtiter system; type: cell-based; conditions: Enterococcus faecalis, ATCC10541, 18 h; strept. faecal.; 37° C., 18-20 hours
Procedure: as §3, §4, §5, §6, §7, §8

[15] = tested on: klebsiella pneumoniae ATCC 10 031; experiment: MIC, serial dilution test in the microtiter system; type: cell-based; conditions: 18 h, klebs pneum ATCC 10031, 37° C., 18-20 hours
Procedure: as §3, §4, §5, §6, §7, §8

[16] = ATCC11775, inoculum 3.3 × 10^2 germs/ml
[17] = ATCC11775, inoculum 3.3 × 10^4 germs/ml
[18] = ATCC11775, inoculum 3.3 × 10^6 germs/ml

SMILES	MIC (pseud. aerug. hamburg.; inoculum 4.7 × 10^2 germs/ml) [µg/mL]	MIC (pseud. aerug. hamburg.; inoculum 4.7 × 10^4 germs/ml) [µg/mL]	MIC (pseud. aerug. hamburg.; inoculum 4.7 × 10^6 germs/ml) [µg/mL]	MIC (E. coli ATCC 11775 [1]; [16]) [µg/mL]	MIC (E. coli ATCC 11775 [1]; [17]) [µg/mL]	MIC (E. coli ATCC 11775 [1]; [18]) [µg/mL]	MIC [4] [µg/mL]	MIC [5] [µg/mL]	MIC [6] [µg/mL]	MIC [7] [µg/mL]	antipseudomonal activity (Pseudomonas)	also measured
CC1(C)S[C@@H]2[C@H](NC(=O)[C@H](NC(=O)N3CCNC3=O)c3ccccc3)C(=O)N2[C@H]1C(=O)O [Q, reference compound]	5 (≈ 10.8 µM)	10 (≈ 21.7 µM)	> 80	10 (≈ 21.7 µM)	10 (≈ 21.7 µM)	10 (≈ 21.7 µM)	20 (≈ 43.3 µM)	10 (≈ 21.7 µM)	10 (≈ 21.7 µM)	5 (≈ 10.8 µM)		ED50 [2]: 110 mg/kg; ED50 (E. coli ATCC 11775 [3]; ATCC11775, po, peroral): 320 mg/kg; ED50 (E. coli ATCC 11775 [3]; ATCC11775, sc, subcutaneous): 35 mg/kg; concentration at 0.5 h ([8]; oral 100 mg/kg): 800 ng/mL; concentration at 1 h ([8]; oral 100 mg/kg): 600 ng/mL; concentration at 2 h ([8]; oral 100 mg/kg): 300 ng/mL; concentration at 0.5 h ([8]; sc, subcutaneous 10 mg/kg): 2800 ng/mL; concentration at 1 h ([8]; sc, subcutaneous 10 mg/kg): 3700 ng/mL; concentration at 2 h ([8]; sc, subcutaneous 10 mg/kg): 400 ng/mL
CC1(C)S[C@@H]2[C@H](NC(=O)[C@H](C(=O)O)c3ccsc3)C(=O)N2[C@H]1C(=O)O [Ticarcillin]											only a poor activity	
CC1(C)S[C@@H]2[C@H](NC(=O)[C@H](NC(=O)Nc3cnc(Nc4ccc(Cl)cc4)nc3O)c3ccc(O)cc3)C(=O)N2[C@H]1C(=O)O [H, D-α-[3-(2-p-chloroanilino-4-hydroxy-5-pyrimidyl)-ureido]-p-hydroxybenzyl-penicillin sodium]	2.5	2.5	> 80	0.3	0.6	1	1.25	0.6	2.5	1.25		MIC [9]: 0.6 µg/mL; MIC [10]: 1.25 µg/mL; MIC [11]: 1.25 µg/mL; MIC [12]: 2.5 µg/mL; MIC [13]: 80 µg/mL; MIC (streptococcus aronson): 0.08 µg/mL; MIC [14]: 5 µg/mL; MIC [15]: 5 µg/mL
CC1(C)S[C@@H]2[C@H](NC(=O)C(C(=O)O)c3ccccc3)C(=O)N2[C@H]1C(=O)O (stereo partly drawn) [Carbenicillin]											only a poor activity	
